Patent US9927430B2, “Pro-substrates for live cell applications” (PROMEGA CORPORATION, priority 2014, dated 2018)
Entries after “also recorded” stand apart in the source; their conditions may differ.

Test: Furimazine release by hydrolysis at different pH, HPLC at 262 nm
Format: physicochemical
Protocol: The effect of pH on the hydrolysis of the disclosed compounds may be useful for high-throughput screening (HTS). The percent furimazine released in 1 mM of PBI-5455 solutions with different pH values ranging from 5.9 to 7.6 were detected over time using HPLC at 262 nm. […] These compounds can be used to support HTS operation methods to enhance the initial brightness by adjusting pH or adding an appropriate nucleophile.
As shown in Example 23, PBI-5455 is stable in slightly acidic buffer for 10 hrs. […] For BRET applications to detect protein-protein and/or ligand-protein interactions, if it is a one-time point reading, the concentration in media could be higher than 100-200 μM.

CC(=O)NC(CC(=O)O)C(=O)NC(CC(=O)O)C(=O)NC(CC(=O)O)C(=O)N(C)CCN(CCCN1CCOCC1)C(=O)Oc1c(Cc2ccco2)nc2c(Cc3ccccc3)nc(-c3ccccc3)cn12 (centres unmarked) [PBI-5455, Ac-DDD-MOP-C2-FRZ]
release of furimazine by hydrolysis (1 mM solutions, pH values ranging from 5.9 to 7.6, over time, HPLC at 262 nm (FIG. 14)): pH dependent; also recorded: The higher the pH, the faster the release | stable in buffer (time) (slightly acidic buffer): 10 h
